Laboratory results reported in PubChem BioAssay (NCI).
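Cells were grown in 96-well plates and exposed to each compound for 48 hours at five concentrations; endpoints were interpolated linearly between bracketing concentrations, or set to the highest concentration if not reached. At the GI50, growth is halved. TGI denotes the concentration required for complete inhibition of growth.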

What was measured:
Assay in all cases: NCI tumour cell line growth inhibition, 48 h
[1] = system: COLO 205 colon
[2] = system: LOX IMVI melanoma
[3] = system: PC-3 prostate
[4] = system: HOP-92 NSCLC
[5] = system: HS 578T breast
[6] = system: MDA-MB-231 breast
[7] = system: NCI-H522 lung
[8] = system: CCRF-CEM leukemia
[9] = system: MOLT-4 leukemia
[10] = system: SN12C renal
[11] = system: MCF7 breast
[12] = system: SF-539 CNS
[13] = system: SK-MEL-5 melanoma
[14] = system: SK-MEL-2 melanoma
[15] = system: NCI-H23 lung
[16] = system: A549 NSCLC
[17] = system: IGROV1 ovarian
[18] = system: UACC-257 melanoma
[19] = system: EKVX NSCLC
[20] = system: NCI-H460 lung
[21] = system: OVCAR-8 ovarian
[22] = system: SNB-75 CNS
[23] = system: T-47D breast
[24] = system: RPMI-8226 leukemia
[25] = system: MDA-MB-435
[26] = system: U251 CNS
[27] = system: SF-295 CNS
[28] = system: SK-OV-3 ovarian
[29] = system: BT-549 breast
[30] = system: RXF 393 renal
[31] = system: UO-31 renal
[32] = system: SF-268 CNS
[33] = system: K-562 leukemia
[34] = system: HT29 colon
[35] = system: OVCAR-4 ovarian
[36] = system: SK-MEL-28 melanoma
[37] = system: SW-620 colon
[38] = system: UACC-62 melanoma
[39] = system: HL-60(TB) leukemia
[40] = system: HCC-2998 colon
[41] = system: ACHN renal
[42] = system: SNB-19 CNS
[43] = system: 786-0 renal
[44] = system: NCI/ADR-RES ovarian
[45] = system: DU-145 prostate
[46] = system: A498 renal
[47] = system: OVCAR-3 ovarian
[48] = system: HCT-116 colon
[49] = system: M14 melanoma
[50] = system: NCI-H226 lung
[51] = system: HOP-62 NSCLC
[52] = system: SR leukemia
[53] = system: OVCAR-5 ovarian
[54] = system: MALME-3M melanoma
[55] = system: HCT-15 colon
[56] = system: TK-10 renal
[57] = system: KM12 colon

Q: With `Cc1cc(N2CCOCC2)nc(N(CCCNc2ccnc3cc(Cl)ccc23)Cc2ccco2)n1` as the compound, how does the GI50 [1] read?
A: The GI50 was 1.71 µM.

Q: What about the TGI [1] of the same compound?
A: Its TGI is 3.72 µM.

Q: And the GI50 [2]?
A: The GI50 was 1.58 µM.

Q: And the TGI [2]?
A: Its TGI is 3.81 µM.

Q: What about the GI50 [3] of the same compound?
A: The GI50 was 3.03 µM.

Q: What about the TGI [3] of the same compound?
A: The TGI was 12.9 µM.

Q: What about the GI50 [4] of the same compound?
A: Its GI50 is 1.56 µM.

Q: And the TGI [4]?
A: The TGI was 7.77 µM.

Q: What about the GI50 [5] of the same compound?
A: The GI50 was 4.03 µM.

Q: What about the TGI [5] of the same compound?
A: The TGI was 25.7 µM.

Q: And the GI50 [6]?
A: The GI50 was 3.2 µM.

Q: What about the TGI [6] of the same compound?
A: The TGI was 13.4 µM.

Q: And the GI50 [7]?
A: Its GI50 is 2.69 µM.

Q: And the TGI [7]?
A: The TGI was 10.9 µM.

Q: What about the GI50 [8] of the same compound?
A: The GI50 was 2.67 µM.

Q: And the TGI [8]?
A: Its TGI is 18.3 µM.

Q: And the GI50 [9]?
A: The GI50 was 3.02 µM.

Q: What about the TGI [9] of the same compound?
A: The TGI was 13.1 µM.

Q: What about the GI50 [10] of the same compound?
A: Its GI50 is 3.35 µM.

Q: What about the TGI [10] of the same compound?
A: Its TGI is 14.6 µM.

Q: And the GI50 [11]?
A: Its GI50 is 2.42 µM.

Q: And the TGI [11]?
A: Its TGI is 12.9 µM.

Q: What about the GI50 [12] of the same compound?
A: The GI50 was 1.95 µM.

Q: And the TGI [12]?
A: The TGI was 4.02 µM.

Q: What about the GI50 [13] of the same compound?
A: The GI50 was 1.82 µM.

Q: And the TGI [13]?
A: Its TGI is 3.65 µM.

Q: And the GI50 [14]?
A: Its GI50 is 2.52 µM.

Q: And the TGI [14]?
A: The TGI was 6.79 µM.

Q: What about the GI50 [15] of the same compound?
A: The GI50 was 2.76 µM.

Q: What about the TGI [15] of the same compound?
A: Its TGI is 12.7 µM.

Q: What about the GI50 [16] of the same compound?
A: Its GI50 is 3.77 µM.

Q: And the TGI [16]?
A: The TGI was 13.6 µM.

Q: And the GI50 [17]?
A: Its GI50 is 2.18 µM.

Q: And the TGI [17]?
A: The TGI was 11.3 µM.

Q: And the GI50 [18]?
A: Its GI50 is 2.73 µM.

Q: And the TGI [18]?
A: Its TGI is 7.33 µM.

Q: And the GI50 [19]?
A: Its GI50 is 3.73 µM.

Q: And the TGI [19]?
A: Its TGI is 16.7 µM.

Q: And the GI50 [20]?
A: Its GI50 is 3.28 µM.

Q: And the TGI [20]?
A: Its TGI is 13.7 µM.

Q: And the GI50 [21]?
A: Its GI50 is 3.15 µM.

Q: What about the TGI [21] of the same compound?
A: The TGI was 12.1 µM.

Q: What about the GI50 [22] of the same compound?
A: The GI50 was 2.29 µM.

Q: And the TGI [22]?
A: The TGI was 9.78 µM.

Q: What about the GI50 [23] of the same compound?
A: The GI50 was 2.06 µM.

Q: And the TGI [23]?
A: Its TGI is 7.26 µM.

Q: What about the GI50 [24] of the same compound?
A: Its GI50 is 2.13 µM.

Q: And the TGI [24]?
A: Its TGI is 6.33 µM.

Q: And the GI50 [25]?
A: Its GI50 is 0.858 µM.

Q: What about the TGI [25] of the same compound?
A: The TGI was 6.41 µM.

Q: What about the GI50 [26] of the same compound?
A: Its GI50 is 3.15 µM.

Q: What about the TGI [26] of the same compound?
A: The TGI was 10.6 µM.

Q: What about the GI50 [27] of the same compound?
A: Its GI50 is 1.67 µM.

Q: What about the TGI [27] of the same compound?
A: The TGI was 6.23 µM.

Q: What about the GI50 [28] of the same compound?
A: The GI50 was 2.84 µM.

Q: And the TGI [28]?
A: The TGI was 10.7 µM.

Q: What about the GI50 [29] of the same compound?
A: Its GI50 is 2.3 µM.

Q: And the TGI [29]?
A: Its TGI is 7.95 µM.

Q: What about the GI50 [30] of the same compound?
A: The GI50 was 1.69 µM.

Q: And the TGI [30]?
A: Its TGI is 4.43 µM.

Q: What about the GI50 [31] of the same compound?
A: Its GI50 is 1.61 µM.

Q: What about the TGI [31] of the same compound?
A: The TGI was 6.77 µM.

Q: What about the GI50 [32] of the same compound?
A: Its GI50 is 3.43 µM.

Q: And the TGI [32]?
A: Its TGI is 16.1 µM.

Q: What about the GI50 [33] of the same compound?
A: The GI50 was 1.33 µM.

Q: And the TGI [33]?
A: The TGI was 11.7 µM.

Q: What about the GI50 [34] of the same compound?
A: The GI50 was 1.83 µM.

Q: What about the TGI [34] of the same compound?
A: Its TGI is 8.57 µM.

Q: What about the GI50 [35] of the same compound?
A: The GI50 was 3.07 µM.

Q: And the TGI [35]?
A: Its TGI is 15.2 µM.

Q: What about the GI50 [36] of the same compound?
A: The GI50 was 2.29 µM.

Q: What about the TGI [36] of the same compound?
A: The TGI was 6.66 µM.

Q: What about the GI50 [37] of the same compound?
A: The GI50 was 2.73 µM.

Q: And the TGI [37]?
A: The TGI was 11.5 µM.

Q: What about the GI50 [38] of the same compound?
A: The GI50 was 3.49 µM.

Q: And the TGI [38]?
A: The TGI was 12.5 µM.

Q: What about the GI50 [39] of the same compound?
A: Its GI50 is 1.87 µM.

Q: And the TGI [39]?
A: Its TGI is 4.55 µM.

Q: What about the GI50 [40] of the same compound?
A: The GI50 was 2.97 µM.

Q: What about the TGI [40] of the same compound?
A: The TGI was 8.18 µM.

Q: What about the GI50 [41] of the same compound?
A: The GI50 was 4.09 µM.

Q: And the TGI [41]?
A: The TGI was 15.8 µM.

Q: What about the GI50 [42] of the same compound?
A: The GI50 was 3.81 µM.

Q: What about the TGI [42] of the same compound?
A: The TGI was 15.4 µM.

Q: And the GI50 [43]?
A: The GI50 was 1.58 µM.

Q: What about the TGI [43] of the same compound?
A: Its TGI is 3.17 µM.

Q: And the GI50 [44]?
A: Its GI50 is 1.95 µM.

Q: What about the TGI [44] of the same compound?
A: The TGI was 6.66 µM.

Q: What about the GI50 [45] of the same compound?
A: Its GI50 is 3.23 µM.

Q: And the TGI [45]?
A: The TGI was 14.2 µM.

Q: What about the GI50 [46] of the same compound?
A: Its GI50 is 2.2 µM.

Q: And the TGI [46]?
A: The TGI was 6.04 µM.

Q: And the GI50 [47]?
A: The GI50 was 1.81 µM.

Q: What about the TGI [47] of the same compound?
A: Its TGI is 4.49 µM.

Q: And the GI50 [48]?
A: The GI50 was 2.2 µM.

Q: What about the TGI [48] of the same compound?
A: The TGI was 10.5 µM.

Q: What about the GI50 [49] of the same compound?
A: Its GI50 is 1.86 µM.

Q: And the TGI [49]?
A: Its TGI is 4.22 µM.

Q: What about the GI50 [50] of the same compound?
A: Its GI50 is 12 µM.

Q: And the TGI [50]?
A: Its TGI is 33.9 µM.

Q: What about the GI50 [51] of the same compound?
A: The GI50 was 1.73 µM.

Q: And the TGI [51]?
A: Its TGI is 6 µM.

Q: What about the GI50 [52] of the same compound?
A: Its GI50 is 1.42 µM.

Q: What about the TGI [52] of the same compound?
A: The TGI was 5.28 µM.

Q: And the GI50 [53]?
A: The GI50 was 4.23 µM.

Q: What about the TGI [53] of the same compound?
A: The TGI was 19.3 µM.

Q: What about the GI50 [54] of the same compound?
A: The GI50 was 2.47 µM.

Q: And the TGI [54]?
A: Its TGI is 5.69 µM.

Q: And the GI50 [55]?
A: Its GI50 is 2.37 µM.

Q: What about the TGI [55] of the same compound?
A: The TGI was 11.6 µM.

Q: What about the GI50 [56] of the same compound?
A: The GI50 was 3.3 µM.

Q: And the TGI [56]?
A: Its TGI is 12.3 µM.

Q: What about the GI50 [57] of the same compound?
A: Its GI50 is 2.7 µM.

Q: And the TGI [57]?
A: The TGI was 12.8 µM.
